Data: paper PMC6982167, “Development of an Improved Peroxidase-Based High-Throughput Screening for the Optimization of D-Glycerate Dehydratase Activity” (International Journal of Molecular Sciences, 2020)

Columns and labels:
[1] = target: T1, SsDHAD (dihydroxyacid dehydratase from Sulfolobus solfataricus) (Saccharolobus solfataricus, UniProt Q97UB2); test: discontinuous dehydration assay, pyruvate by HPLC; type: biochemical; conditions: supplied as D/L-glycerate 40 mM, pH 7.0, 50 °C, 60 min
T1 construct: gene ilvD; full-length synthetic gene in pET24a(+) via NdeI/XhoI, reverse primer carries stop codon (no tag); E. coli BL21(DE3); heat step 70 °C with 2-mercaptoethanol, desalted; iron-sulfur cluster
T1 sequence (Q97UB2 whole entry): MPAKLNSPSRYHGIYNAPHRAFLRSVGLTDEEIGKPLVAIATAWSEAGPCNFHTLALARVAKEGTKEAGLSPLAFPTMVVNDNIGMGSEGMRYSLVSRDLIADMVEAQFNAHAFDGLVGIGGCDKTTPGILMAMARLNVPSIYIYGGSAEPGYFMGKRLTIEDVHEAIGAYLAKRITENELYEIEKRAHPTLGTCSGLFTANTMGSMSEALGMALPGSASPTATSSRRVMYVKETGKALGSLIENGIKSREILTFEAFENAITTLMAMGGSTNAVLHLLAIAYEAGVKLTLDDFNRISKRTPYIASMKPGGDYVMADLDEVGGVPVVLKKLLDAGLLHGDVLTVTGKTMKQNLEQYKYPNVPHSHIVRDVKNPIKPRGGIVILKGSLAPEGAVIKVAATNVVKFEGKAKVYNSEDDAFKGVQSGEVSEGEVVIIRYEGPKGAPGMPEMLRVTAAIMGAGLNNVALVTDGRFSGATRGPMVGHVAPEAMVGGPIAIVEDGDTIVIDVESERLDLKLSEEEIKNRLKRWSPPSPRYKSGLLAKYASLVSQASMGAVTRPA

[2] = target: T1, SsDHAD (dihydroxyacid dehydratase from Sulfolobus solfataricus); test: discontinuous dehydration assay, HPLC (2-keto-3-deoxygluconate); type: biochemical; conditions: 20 mM D-gluconate, 50 °C, 60 min

Structure (SMILES)	specific activity [1]	specific activity [2]
O=C(O)[C@H](O)CO [D-glycerate]	wildtype showed an activity for the dehydration of D-glycerate	–
O=C(O)[C@H](O)[C@@H](O)[C@H](O)[C@H](O)CO [D-gluconate]	–	we also tested the conversion of D-gluconate to 2-keto-deoxy gluconate
